Laboratory results taken from patent US8354443B2, “Cyclopropane indolinone derivatives” (Hoffmann-La Roche Inc., priority 2009, dated 2013).

system: recombinant AMPK proteins (α1β1γ1, α2β1γ1, α1(1-335), α1(1-394) or α2(1-394)); experiment: Scintillation Proximity Assay (AMPK activation); assay type: biochemical, human; conditions: effective concentration of activator for 50% of maximal enzyme activity; 2 hr at 30° C.; AMPK form not specified
Description: Recombinant human AMPK α1β1γ1, α2β1γ1 or AMPK a subunit truncations α1 (1-335), α1 (1-394) and α2(1-394) were constructed, expressed and purified as described previously (Pang, T., Zhang, Z. S., Gu, M., Qiu, B. Y., Yu, L. F., Cao, P. R., Shao, W., Su, M. B., Li, J. Y., Nan, F. J., and Li, J. (2008) or purchased from Invitrogen (San Diego, Calif., U.S.A.). Rat liver AMPK heterotrimer enzyme was obtained from Upstate (Billerica, Mass., U.S.A.).
Before the Scintillation Proximity Assay (SPA) assay, 200 nM recombinant AMPK proteins (α1β1γ1, α2β1γ1, α1(1-335), α1(1-394) or α2(1-394)) were fully phosphorylated as described previously (Pang et al., 2008). SPA reactions were performed in 96-well plates at a final volume of 50 μl containing 20 mM Tris-HCl pH 7.5, 5 mM MgCl2, 1 mM DTT, 2 μM biotin-SAMS, 2 μM ATP, 0.2 μCi/well [γ-^33P]ATP, and various amount of activator. Reactions were initiated by the addition of 50 nM recombinant AMPK proteins to the reaction solutions and incubated at 30° C. for 2 hr. After that, reactions were terminated by the addition of 40 μl stop solution containing 80 μg streptavidin-coated SPA beads per well, 50 mM EDTA, 0.1% Triton X-100 in PBS, pH 7.5 and incubated for 1 hr. Finally, a 160 μl suspension solution containing 2.4 M CsCl, 50 mM EDTA, and 0.1% Triton X-100 in PBS (pH 7.5) was added to the reaction solution to suspend SPA beads completely. SPA signals were determined with a Wallac MicroBeta plate counter (PerkinElmer) 30 min later for calculation of the amount of product formed. The amount of products formed in 2 hr was plotted against activator concentrations to determine the effective concentration of the activator (EC50) required for 50% of maximal enzyme activity.

Row | EC50 [nM] | Compound
1 | 1400 | CN1CCN(C(=O)c2cccc(N3C(=O)[C@]4(C[C@@H]4c4ccc(Cl)cc4)c4ccccc43)c2)CC1 (racemic) [Example 89, (1S,2R) and (1R,2S)-2-(4-chlorophenyl)-1′-(3-(4-methylpiperazine-1-carbonyl)phenyl)spiro[cyclopropane-1,3′-indolin]-2′-one]
2 | 1470 | CS(=O)(=O)N1CCN(C(=O)c2cccc(N3C(=O)[C@]4(C[C@@H]4c4ccc(Cl)cc4)c4ccccc43)c2)CC1 (racemic) [Example 90, (1R,2S) and (1S,2R)-2-(4-chlorophenyl)-1′-(3-(4-(methylsulfonyl)piperazine-1-carbonyl)phenyl)spiro[cyclopropane-1,3′-indolin]-2′-one]
3 | 1550 | CS(=O)(=O)NC(=O)c1cccc(N2C(=O)[C@@]3(C[C@@H]3c3ccc(Cl)cc3)c3ccccc32)c1 (racemic) [Example 91, (1R,2R) and (1S,2S)-3-(2-(4-chlorophenyl)-2′-oxospiro[cyclopropane-1,3′-indoline]-1′-yl)-N-(methylsulfonyl)benzamide]
4 | 870 | O=C(O)c1cc(N2CCOC2=O)cc(N2C(=O)[C@]3(C[C@H]3c3ccc(Cl)cc3)c3ccccc32)c1 (racemic) [Example 92, (1S,2S) and (1R,2R)-3-(2-(4-chlorophenyl)-2′-oxospiro[cyclopropane-1,3′-indoline]-1′-yl)-5-(2-oxooxazolidin-3-yl)benzoic acid]
5 | 910 | CS(=O)(=O)c1cc(C(=O)O)cc(N2C(=O)[C@]3(C[C@H]3c3ccc(Cl)cc3)c3ccccc32)c1 (racemic) [Example 93, (1S,2S) and (1R,2R)-3-(2-(4-chlorophenyl)-2′-oxospiro[cyclopropane-1,3′-indoline]-1′-yl)-5-(methylsulfonyl)benzoic acid]
6 | 1500 | O=C(O)c1cc(N2CCCC2=O)cc(N2C(=O)[C@]3(C[C@H]3c3ccc(Cl)cc3)c3ccccc32)c1 (racemic) [Example 94, (1S,2S) and (1R,2R)-3-(2-(4-chlorophenyl)-2′-oxospiro[cyclopropane-1,3′-indoline]-1′-yl)-5-(2-oxopyrrolidin-1-yl)benzoic acid]
7 | 1370 | CNC(=O)c1cccc(CN2C(=O)[C@@]3(C[C@H]3c3ccc(Cl)cc3)c3ccccc32)c1 (racemic) [Example 110, (1R,2S) and (1S,2R)-3-((2-(4-chlorophenyl)-2′-oxospiro[cyclopropane-1,3′-indoline]-1′-yl)methyl)-N-methylbenzamide]
8 | 1270 | O=C(NCCCN1CCOCC1)c1cccc(CN2C(=O)[C@@]3(C[C@H]3c3ccc(Cl)cc3)c3ccccc32)c1 (racemic) [Example 112, (1R,2S) and (1S,2R)-3-((2-(4-chlorophenyl)-2′-oxospiro[cyclopropane-1,3′-indoline]-1′-yl)methyl)-N-(3-morpholinopropyl)benzamide]
9 | 1840 | CN(C)CCN1CCN(C(=O)c2cccc(CN3C(=O)[C@@]4(C[C@H]4c4ccc(Cl)cc4)c4ccccc43)c2)CC1 (racemic) [Example 113, (1R,2S) and (1S,2R)-2-(4-chlorophenyl)-1′-(3-(4-(2-(dimethylamino)ethyl)piperazine-1-carbonyl)benzyl)spiro[cyclopropane-1,3′-indolin]-2′-one]
10 | 6480 | O=C(NCCN1CCOCC1)c1cccc(CN2C(=O)[C@@]3(C[C@H]3c3ccc(Cl)cc3)c3ccccc32)c1 (racemic) [Example 114, (1R,2S) and (1S,2R)-3-((2-(4-chlorophenyl)-2′-oxospiro[cyclopropane-1,3′-indoline]-1′-yl)methyl)-N-(2-morpholinoethyl)benzamide]
11 | 5140 | CS(=O)(=O)N1CCN(C(=O)c2cccc(CN3C(=O)[C@@]4(C[C@H]4c4ccc(Cl)cc4)c4ccccc43)c2)CC1 (racemic) [Example 115, (1R,2S) and (1S,2R)-2-(4-chlorophenyl)-1′-(3-(4-(methylsulfonyl)piperazine-1-carbonyl)benzyl)spiro[cyclopropane-1,3′-indolin]-2′-one]
12 | 4330 | O=C(Nc1cc(C2CC2)n[nH]1)c1cccc(CN2C(=O)[C@]3(C[C@@H]3c3ccc(Cl)cc3)c3ccccc32)c1 (racemic) [Example 116, (1S,2R) and (1R,2S)-3-((2-(4-chlorophenyl)-2′-oxospiro[cyclopropane-1,3′-indoline]-1′-yl)methyl)-N-(3-cyclopropyl-1H-pyrazol-5-yl)benzamide]
13 | 990 | O=C(Nc1cc(C2CC2)[nH]n1)c1cccc(CN2C(=O)[C@]3(C[C@@H]3c3ccc(Cl)cc3)c3ccccc32)c1 (racemic) [Example 117, (1S,2R) and (1R,2S)-3-((2-(4-chlorophenyl)-2′-oxospiro[cyclopropane-1,3′-indoline]-1′-yl)methyl)-N-(5-cyclopropyl-1H-pyrazol-3-yl)benzamide]
14 | 5400 | O=C1N(CC2CCNCC2)c2ccccc2[C@@]12C[C@@H]2c1ccc(Cl)cc1 (racemic) [Example 124, (1S,2R) and (1R,2S)-2-(4-chlorophenyl)-1′-(piperidin-4-ylmethyl) Spiro[cyclopropane-1,3′-indolin]-2′-one]
15 | 1750 | O=C1N(CCN2CCCCC2)c2ccccc2[C@@]12C[C@@H]2c1ccc(Cl)cc1 (racemic) [Example 125, (1S,2R) and (1R,2S)-2-(4-chlorophenyl)-1′-(2-(piperidin-1-yl)ethyl)spiro[cyclopropane-1,3′-indolin]-2′-one]
16 | 4500 | O=C1N(CCNCCCN2CCOCC2)c2ccccc2[C@@]12C[C@@H]2c1ccc(Cl)cc1 (racemic) [Example 127, (1S,2R) and (1R,2S)-2-(4-chlorophenyl)-1′-(2-(3-morpholinopropylamino)ethyl) spiro[cyclopropane-1,3′-indolin]-2′-one]
17 | 2040 | O=C1N(CCNCCN2CCOCC2)c2ccccc2[C@@]12C[C@@H]2c1ccc(Cl)cc1 (racemic) [Example 128, (1S,2R) and (1R,2S)-2-(4-chlorophenyl)-1′-(2-(2-morpholinoethylamino)ethyl) spiro[cyclopropane-1,3′-indolin]-2′-one]
18 | 1680 | O=C1N(CCN2CCN(c3ccncc3)CC2)c2ccccc2[C@@]12C[C@@H]2c1ccc(Cl)cc1 (racemic) [Example 129, (1S,2R) and (1R,2S)-2-(4-chlorophenyl)-1′-(2-(4-(pyridin-4-yl)piperazin-1-yl)ethyl) spiro[cyclopropane-1,3′-indolin]-2′-one]
19 | 3270 | O=C1N(c2c[nH]cn2)c2ccccc2[C@@]12C[C@@H]2c1ccc(Cl)cc1 (racemic) [Example 131, (1S,2R) and (1R,2S)-2-(4-chlorophenyl)-1′-(1H-imidazol-4-yl)spiro[cyclopropane-1,3′-indolin]-2′-one]
20 | 1550 | CS(=O)(=O)NC(=O)c1cccc(N2C(=O)[C@]3(C[C@@H]3c3ccc(Cl)cc3)c3ccccc32)c1 (racemic) [Example 132, (1S,2R) and (1R,2S)-3-(2-(4-chlorophenyl)-2′-oxospiro[cyclopropane-1,3′-indoline]-1′-yl)-N-(methylsulfonyl)benzamide]
21 | 1070 | CN1CCCC1CCNC(=O)c1cccc(CN2C(=O)[C@]3(C[C@@H]3c3ccc(Cl)cc3)c3ccccc32)c1 (stereo partly drawn) [Example 66, 3-(((1S,2R)-2-(4-chlorophenyl)-2′-oxospiro[cyclopropane-1,3′-indoline]-1′-yl)methyl)-N-(2-((S)-1-methylpyrrolidin-2-yl)ethyl)benzamide and 3-(((1R,2S)-2-(4-chlorophenyl)-2′-oxospiro[cyclopropane-1,3′-indoline]-1′-yl)methyl)-N-(2-((5)-1-methylpyrrolidin-2-yl)ethyl)benzamide]

Row | Compound | EC50 [nM]
22 | (1R,2R) and (1S,2S)-((2-(4-(methylsulfonyl)phenyl)-2′-oxospiro[cyclopropane-1,3′-indoline]-1′-yl)methyl)benzoic acid [Example 4] | 2200
